The values below come from ChEMBL document CHEMBL6078681, “Discovery and Optimization of Dihydroquinolin-2(1H)-ones as Novel Highly Selective and Orally Bioavailable Phosphodiesterase 5 Inhibitors for the Treatment of Pulmonary Arterial Hypertension” (J Med Chem, 2024).

Broadly, the inhibition is the relative decrease from the control value, in per cent. A higher inhibition goes with a response far below the control. As a reminder, the IC50 is the concentration needed to halve the response being measured. Low readings indicate inhibition by little substance, high ones a need for much substance.

Test [1] addresses T1, cGMP-specific 3',5'-cyclic phosphodiesterase (Homo sapiens, UniProt O76074). Description: Inhibition of PDE5A (unknown origin) using […] as substrate at 100 nM incubated for 1 hr by fluorescence polarization assay relative to control.
Test [2] addresses T1, cGMP-specific 3',5'-cyclic phosphodiesterase. Description: Inhibition of PDE5A (unknown origin) using […] as substrate incubated for 1 hr by fluorescence polarization assay. Background: Fluorescence polarisation rises when a labelled molecule tumbles more slowly, as on binding a larger partner.
For test [3] the target is unchanged. Description: Inhibition of PDE5A (unknown origin) using […] as substrate at 1000 nM incubated for 1 hr by fluorescence polarization assay relative to control.

Compound `CC(Nc1cccc2c(C3CCCC3)c(C#N)c(=O)n(Cc3ccccc3)c12)c1ccccn1` (stereo not given) showed an inhibition in test [1] of 14%.

On to `Cc1ccc(-c2c(C#N)c(=O)n(Cc3ccccc3)c3c(NC(C)c4ccccc4)cccc23)cc1` (stereo not given), for which 11 nM corresponded to half-maximal inhibition in test [2] (IC50).

Take `Cc1ccc(-c2c(C#N)c(=O)n(Cc3ccc4c(c3)OCO4)c3c(NC(C)c4ccccn4)cccc23)cc1` (stereo not given): the IC50 in test [2] amounted to 198 nM.

As for `CCCCNc1cccc2c(-c3ccc(C)cc3)c(C#N)c(=O)n(Cc3ccccc3)c12`, the half-inhibitory concentration (IC50) in test [2] was 30 nM.

For `Cc1ccc(-c2c(C#N)c(=O)n(CC3CCCC3)c3c(NC(C)c4ccccn4)cccc23)cc1` (stereo not given), half-maximal inhibition in test [2] (IC50) was put at 55 nM.

On to `Cc1ccc(-c2c(C#N)c(=O)n(Cc3ccccc3)c3cc(NC(C)c4ccccn4)ccc23)cc1` (stereo not given), for which the concentration for half-maximal inhibition (IC50) in test [2] was determined as 578 nM.

`Cc1ccc(-c2c(C#N)c(=O)n(Cc3ccccc3)c3c(NCc4ccccc4)cccc23)cc1` returned a half-maximal inhibitory concentration (IC50) in test [2] of 20 nM.

In test [2], `Cc1ccc(-c2c(C#N)c(=O)n(Cc3ccncc3)c3c(N[C@H](C)c4ccccn4)cccc23)cc1` displayed a 50% inhibitory concentration (IC50) of 73 nM.

The compound `COc1ccc(-c2c(C#N)c(=O)n(Cc3ccccc3)c3c(N[C@@H](C)c4ccccn4)cccc23)cc1` gave an IC50 in test [2] of 8 nM.

Turning to `Cc1ccc(-c2c(C#N)c(=O)n(CC3CC3)c3c(NC(C)c4ccccn4)cccc23)cc1` (stereo not given), the inhibition in test [3] was determined as 35%.
